Laboratory results taken from PubChem BioAssay AID1963962 (Molecular Pharmacology Branch, DTP, NCI, 2024).

System: 967376-340-R-J2-PDC multicell spheroid viability
Assay: Anticancer human tumor 967376-340-R-J2-PDC patient-derived colon adenocarcinoma cell line growth inhibition [PI3K]
Details: for IC50: curve of first compound; for viability, T/C: stronger effect = lower value
Outline: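 Multi-cell spheroids combine tumor cells with HUVEC and human MSCs, treated with targeted agents alone or with inavolisib, alpelisib, duvelisib or copanlisib. Concentrations fall in half-log steps from at or near clinical Cmax, or from 10 microM where Cmax is unknown; viability read-out.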

[1] = second compound 0.0316 µM, first compound 0.0316 µM
[2] = second compound 0.0316 µM, first compound 0.1 µM
[3] = second compound 0.0316 µM, first compound 0.316 µM
[4] = second compound 0.0316 µM, first compound 1 µM
[5] = second compound 0.0316 µM, first compound 3.16 µM
[6] = second compound 0.0316 µM, first compound 10 µM
[7] = second compound 0.1 µM, first compound 0.0316 µM
[8] = second compound 0.1 µM, first compound 0.1 µM
[9] = second compound 0.1 µM, first compound 0.316 µM
[10] = second compound 0.1 µM, first compound 1 µM
[11] = second compound 0.1 µM, first compound 3.16 µM
[12] = second compound 0.1 µM, first compound 10 µM
[13] = second compound 0.316 µM, first compound 0.0316 µM
[14] = second compound 0.316 µM, first compound 0.1 µM
[15] = second compound 0.316 µM, first compound 0.316 µM
[16] = second compound 0.316 µM, first compound 1 µM
[17] = second compound 0.316 µM, first compound 3.16 µM
[18] = second compound 0.316 µM, first compound 10 µM
[19] = second compound 1 µM, first compound 0.0316 µM
[20] = second compound 1 µM, first compound 0.1 µM
[21] = second compound 1 µM, first compound 0.316 µM
[22] = second compound 1 µM, first compound 1 µM
[23] = second compound 1 µM, first compound 3.16 µM
[24] = second compound 1 µM, first compound 10 µM
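Also: spheroids exposed to agents for 7 days before read-out.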
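For viability, T/C in this document: luminescence used as surrogate of cell viability.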

CC1(C)CCC(Nc2ncc(C(F)(F)F)c(-c3c[nH]c4c(P(C)(C)=O)c(C#N)ccc34)n2)CN1 (stereo unspecified) + CC(Nc1ccc2c(c1)OCCn1cc(N3C(=O)OCC3C(F)F)nc1-2)C(N)=O
IC50 (second compound 0.00316 µM): 6690 nM | IC50 (second compound 0.01 µM): > 10000 nM | IC50 (second compound 0.0316 µM): 6640 nM | IC50 (second compound 0.1 µM): 2270 nM | IC50 (second compound 0.316 µM): 3650 nM | IC50 (second compound 1 µM): 277 nM | viability, T/C (second compound 0.00316 µM, first compound 0.0316 µM): 92.7% | viability, T/C (second compound 0.00316 µM, first compound 0.1 µM): 69.1% | viability, T/C (second compound 0.00316 µM, first compound 0.316 µM): 68% | viability, T/C (second compound 0.00316 µM, first compound 1 µM): 64.7% | viability, T/C (second compound 0.00316 µM, first compound 3.16 µM): 57.6% | viability, T/C (second compound 0.00316 µM, first compound 10 µM): 44.3% | viability, T/C (second compound 0.01 µM, first compound 0.0316 µM): 79% | viability, T/C (second compound 0.01 µM, first compound 0.1 µM): 88.1% | viability, T/C (second compound 0.01 µM, first compound 0.316 µM): 64.8% | viability, T/C (second compound 0.01 µM, first compound 1 µM): 53.2% | viability, T/C (second compound 0.01 µM, first compound 3.16 µM): 59.6% | viability, T/C (second compound 0.01 µM, first compound 10 µM): 49% | viability, T/C [1]: 58.4% | viability, T/C [2]: 76.8% | viability, T/C [3]: 63.3% | viability, T/C [4]: 66.2% | viability, T/C [5]: 54.1% | viability, T/C [6]: 46.7% | viability, T/C [7]: 58.5% | viability, T/C [8]: 74.1% | viability, T/C [9]: 69.7% | viability, T/C [10]: 54% | viability, T/C [11]: 48.1% | viability, T/C [12]: 25.6% | viability, T/C [13]: 56.3% | viability, T/C [14]: 67.3% | viability, T/C [15]: 56.9% | viability, T/C [16]: 52.9% | viability, T/C [17]: 54.9% | viability, T/C [18]: 24.8% | viability, T/C [19]: 53.6% | viability, T/C [20]: 53.4% | viability, T/C [21]: 43.5% | viability, T/C [22]: 50.7% | viability, T/C [23]: 36.1% | viability, T/C [24]: 24.6%

CNC(=O)c1ccc(N2C(=S)N(c3ccc(C#N)c(C(F)(F)F)c3)C(=O)C2(C)C)cc1F + CC(Nc1ncnc2nc[nH]c12)c1cc2cccc(Cl)c2c(=O)n1-c1ccccc1
IC50 (second compound 0.0316 µM): > 10000 nM | IC50 (second compound 0.1 µM): > 10000 nM | IC50 (second compound 0.316 µM): > 10000 nM | IC50 (second compound 1 µM): > 10000 nM | IC50 (second compound 3.16 µM): > 10000 nM | IC50 (second compound 10 µM): > 10000 nM | viability, T/C [1]: 140% | viability, T/C [2]: 88.7% | viability, T/C [3]: 92% | viability, T/C [4]: 101% | viability, T/C [5]: 134% | viability, T/C [6]: 88.3% | viability, T/C [7]: 109% | viability, T/C [8]: 109% | viability, T/C [9]: 94.2% | viability, T/C [10]: 104% | viability, T/C [11]: 99.3% | viability, T/C [12]: 73.1% | viability, T/C [13]: 89.6% | viability, T/C [14]: 104% | viability, T/C [15]: 82.2% | viability, T/C [16]: 92% | viability, T/C [17]: 106% | viability, T/C [18]: 105% | viability, T/C [19]: 81.4% | viability, T/C [20]: 80.3% | viability, T/C [21]: 72.3% | viability, T/C [22]: 86.1% | viability, T/C [23]: 113% | viability, T/C [24]: 88.5% | viability, T/C (second compound 3.16 µM, first compound 0.0316 µM): 78.5% | viability, T/C (second compound 3.16 µM, first compound 0.1 µM): 89% | viability, T/C (second compound 3.16 µM, first compound 0.316 µM): 82% | viability, T/C (second compound 3.16 µM, first compound 1 µM): 80.1% | viability, T/C (second compound 3.16 µM, first compound 3.16 µM): 102% | viability, T/C (second compound 3.16 µM, first compound 10 µM): 87.5% | viability, T/C (second compound 10 µM, first compound 0.0316 µM): 63.9% | viability, T/C (second compound 10 µM, first compound 0.1 µM): 83.7% | viability, T/C (second compound 10 µM, first compound 0.316 µM): 70% | viability, T/C (second compound 10 µM, first compound 1 µM): 70.6% | viability, T/C (second compound 10 µM, first compound 3.16 µM): 92.3% | viability, T/C (second compound 10 µM, first compound 10 µM): 77.4%

Cn1cnc2c(F)c(Nc3ccc(Br)cc3Cl)c(C(=O)NOCCO)cc21 + CC(Nc1ncnc2nc[nH]c12)c1cc2cccc(Cl)c2c(=O)n1-c1ccccc1
IC50 (second compound 0.0316 µM): 1460 nM | IC50 (second compound 0.1 µM): 2110 nM | IC50 (second compound 0.316 µM): 1920 nM | IC50 (second compound 1 µM): 1330 nM | IC50 (second compound 3.16 µM): 1340 nM | IC50 (second compound 10 µM): 666 nM | viability, T/C (second compound 0.0316 µM, first compound 0.00949 µM): 73.5% | viability, T/C (second compound 0.0316 µM, first compound 0.03 µM): 112% | viability, T/C (second compound 0.0316 µM, first compound 0.0949 µM): 95.4% | viability, T/C (second compound 0.0316 µM, first compound 0.3 µM): 75.5% | viability, T/C (second compound 0.0316 µM, first compound 0.949 µM): 61.4% | viability, T/C (second compound 0.0316 µM, first compound 3 µM): 34.5% | viability, T/C (second compound 0.1 µM, first compound 0.00949 µM): 106% | viability, T/C (second compound 0.1 µM, first compound 0.03 µM): 107% | viability, T/C (second compound 0.1 µM, first compound 0.0949 µM): 87.5% | viability, T/C (second compound 0.1 µM, first compound 0.3 µM): 102% | viability, T/C (second compound 0.1 µM, first compound 0.949 µM): 74.7% | viability, T/C (second compound 0.1 µM, first compound 3 µM): 38.5% | viability, T/C (second compound 0.316 µM, first compound 0.00949 µM): 78.8% | viability, T/C (second compound 0.316 µM, first compound 0.03 µM): 104% | viability, T/C (second compound 0.316 µM, first compound 0.0949 µM): 97.9% | viability, T/C (second compound 0.316 µM, first compound 0.3 µM): 78.3% | viability, T/C (second compound 0.316 µM, first compound 0.949 µM): 61.9% | viability, T/C (second compound 0.316 µM, first compound 3 µM): 43% | viability, T/C (second compound 1 µM, first compound 0.00949 µM): 97.1% | viability, T/C (second compound 1 µM, first compound 0.03 µM): 97.4% | viability, T/C (second compound 1 µM, first compound 0.0949 µM): 90.1% | viability, T/C (second compound 1 µM, first compound 0.3 µM): 78.1% | viability, T/C (second compound 1 µM, first compound 0.949 µM): 64.5% | viability, T/C (second compound 1 µM, first compound 3 µM): 21.1% | viability, T/C (second compound 3.16 µM, first compound 0.00949 µM): 82% | viability, T/C (second compound 3.16 µM, first compound 0.03 µM): 83.6% | viability, T/C (second compound 3.16 µM, first compound 0.0949 µM): 70.7% | viability, T/C (second compound 3.16 µM, first compound 0.3 µM): 97% | viability, T/C (second compound 3.16 µM, first compound 0.949 µM): 61.6% | viability, T/C (second compound 3.16 µM, first compound 3 µM): 22.6% | viability, T/C (second compound 10 µM, first compound 0.00949 µM): 78.4% | viability, T/C (second compound 10 µM, first compound 0.03 µM): 64.3% | viability, T/C (second compound 10 µM, first compound 0.0949 µM): 69.2% | viability, T/C (second compound 10 µM, first compound 0.3 µM): 66% | viability, T/C (second compound 10 µM, first compound 0.949 µM): 43.1% | viability, T/C (second compound 10 µM, first compound 3 µM): 13.7%
